In PubChem BioAssay AID248 (DTP/NCI, 2004):
Several values for one entry are separate records, joined by “and”; a condition that tells them apart may be missing. Equal values may be shown once. Toxic doses and inconclusive results are not listed.

System: L1210 leukemia ip in BDF1 mice, survival T/C
Assay: NCI In Vivo Anticancer Drug Screen. Data for tumor model L1210 Leukemia (intraperitoneal) in B6D2F1 (BDF1) mice
Details: endpoint: mean survival time, higher = longer survival
Method in brief: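 Value reflects the ratio of survival in compound-treated mice to survival in vehicle-treated controls, with both groups carrying the same transplanted tumor.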

[1] = dose: 100.0 mg/kg/injection, schedule: Q01DX009 (ip), vehicle: Klucel (hydroxypropylcellulose) (HPC)
[2] = dose: 100.0 mg/kg/injection, schedule: Q01DX001 (ip), vehicle: saline with Tween-80
[3] = dose: 200.0 mg/kg/injection, schedule: Q01DX001 (ip), vehicle: saline with Tween-80
[4] = dose: 400.0 mg/kg/injection, schedule: Q01DX001 (ip), vehicle: saline with Tween-80
[5] = dose: 100.0 mg/kg/injection, schedule: Q01DX009 (ip), vehicle: saline
[6] = dose: 100.0 mg/kg/injection, schedule: Q01DX001 (ip), vehicle: carboxymethylcellulose (CMC)
[7] = dose: 100.0 mg/kg/injection, schedule: Q04DX003 (ip), vehicle: saline with Tween-80
[8] = dose: 200.0 mg/kg/injection, schedule: Q04DX003 (ip), vehicle: saline with Tween-80
[9] = dose: 400.0 mg/kg/injection, schedule: Q04DX003 (ip), vehicle: saline with Tween-80
[10] = dose: 50.0 mg/kg/injection, schedule: Q01DX009 (ip), vehicle: saline with Tween-80
[11] = dose: 100.0 mg/kg/injection, schedule: Q01DX009 (ip), vehicle: saline with Tween-80
[12] = dose: 200.0 mg/kg/injection, schedule: Q01DX009 (ip), vehicle: saline with Tween-80
[13] = dose: 100.0 mg/kg/injection, schedule: Q04DX003 (ip), vehicle: saline

What does the source list for CC(C)=CCN(CC=C(C)C)CCC(C#N)c1cccc2ccccc12 (stereo not drawn)?
T/C (dose: 50.0 mg/kg/injection, schedule: Q01DX009 (ip), vehicle: Klucel (hydroxypropylcellulose) (HPC)): 100 % of control; T/C [1]: 88 % of control; T/C (dose: 100.0 mg/kg/injection, schedule: Q04DX003 (ip), vehicle: Klucel (hydroxypropylcellulose) (HPC)): 109 % of control; T/C (dose: 200.0 mg/kg/injection, schedule: Q01DX009 (ip), vehicle: Klucel (hydroxypropylcellulose) (HPC)): 88 % of control; T/C (dose: 200.0 mg/kg/injection, schedule: Q04DX003 (ip), vehicle: Klucel (hydroxypropylcellulose) (HPC)): 90 % of control; T/C (dose: 400.0 mg/kg/injection, schedule: Q04DX003 (ip), vehicle: Klucel (hydroxypropylcellulose) (HPC)): 93 % of control

With COC(=O)c1ccc(N(C)Cc2cnc3nc(N)nc(SCc4ccccc4)c3n2)cc1 as the molecule, how does the T/C [2] read?
Its T/C is 97 % of control.

What about the T/C [3] of the same molecule?
The T/C was 94 % of control.

What about the T/C [4] of the same molecule?
The T/C was 101 % of control.

Which results are given for O=C(NN1C(=O)c2cccc3cccc(c23)C1=O)NN1C(=O)c2cccc3cccc(c23)C1=O?
T/C (dose: 100.0 mg/kg/injection, schedule: Q04DX002 (ip), vehicle: Klucel (hydroxypropylcellulose) (HPC)): 92 % of control; T/C (dose: 200.0 mg/kg/injection, schedule: Q04DX002 (ip), vehicle: Klucel (hydroxypropylcellulose) (HPC)): 92 % of control

With C1CC[N-]CC1.Oc1ccccc1C=NCCN=Cc1ccccc1O.[Co] as the molecule, how does the T/C (dose: 6.25 mg/kg/injection, schedule: Q04DX002 (ip), vehicle: saline with Tween-80) read?
The T/C was 90 % of control.

What does the source list for CCOC(=O)c1cnc(SCC)nc1SC#N?
T/C (dose: 100.0 mg/kg/injection, schedule: Q01DX009 (ip), vehicle: gum acacia): 105 % of control; T/C (dose: 100.0 mg/kg/injection, schedule: Q04DX003 (ip), vehicle: gum acacia): 105 % of control; T/C (dose: 200.0 mg/kg/injection, schedule: Q01DX009 (ip), vehicle: gum acacia): 106 % of control; T/C (dose: 200.0 mg/kg/injection, schedule: Q04DX003 (ip), vehicle: gum acacia): 97 % of control; T/C (dose: 400.0 mg/kg/injection, schedule: Q01DX009 (ip), vehicle: gum acacia): 97 % of control; T/C (dose: 400.0 mg/kg/injection, schedule: Q04DX003 (ip), vehicle: gum acacia): 97 % of control

For CC(NC(=O)C(N)CSC(c1ccccc1)(c1ccccc1)c1ccccc1)C(=O)O (stereo not drawn), which T/C (dose: 25.0 mg/kg/injection, schedule: Q01DX009 (ip), vehicle: other) is on record?
The T/C was 121 % of control.

And the T/C (dose: 25.0 mg/kg/injection, schedule: Q01DX009 (ip), vehicle: saline)?
Its T/C is 114 % of control.

And the T/C (dose: 50.0 mg/kg/injection, schedule: Q01DX009 (ip), vehicle: saline)?
The T/C was 122 % of control.

What about the T/C [5] of the same molecule?
The T/C was 152 % of control.

And the T/C (dose: 200.0 mg/kg/injection, schedule: Q01DX009 (ip), vehicle: other)?
The T/C was 88 % of control.

What about the T/C (dose: 200.0 mg/kg/injection, schedule: Q01DX009 (ip), vehicle: saline) of the same molecule?
Its T/C is 111 % of control.

For Cc1ccc(NC(=O)N(CCCl)N=O)cc1C, which T/C (dose: 0.5 mg/kg/injection, schedule: Q01DX009 (ip), vehicle: carboxymethylcellulose (CMC)) is on record?
Its T/C is 114 % of control.

And the T/C (dose: 1.0 mg/kg/injection, schedule: Q01DX009 (ip), vehicle: carboxymethylcellulose (CMC))?
The T/C was 119 % of control.

What about the T/C (dose: 1.5 mg/kg/injection, schedule: Q01DX001 (ip), vehicle: carboxymethylcellulose (CMC)) of the same molecule?
The T/C was 114 % of control.

And the T/C (dose: 2.0 mg/kg/injection, schedule: Q01DX009 (ip), vehicle: carboxymethylcellulose (CMC))?
Its T/C is 103 % of control.

And the T/C (dose: 4.0 mg/kg/injection, schedule: Q01DX009 (ip), vehicle: carboxymethylcellulose (CMC))?
The T/C was 158 % of control.

And the T/C (dose: 6.0 mg/kg/injection, schedule: Q01DX001 (ip), vehicle: carboxymethylcellulose (CMC))?
Its T/C is 119 % of control.

What about the T/C (dose: 8.8 mg/kg/injection, schedule: Q01DX009 (ip), vehicle: carboxymethylcellulose (CMC)) of the same molecule?
Its T/C is 249 % of control.

And the T/C (dose: 13.3 mg/kg/injection, schedule: Q01DX009 (ip), vehicle: carboxymethylcellulose (CMC))?
The T/C was 159 % of control.

And the T/C (dose: 19.0 mg/kg/injection, schedule: Q01DX001 (ip), vehicle: carboxymethylcellulose (CMC))?
The T/C was 173 % of control.

What about the T/C (dose: 29.0 mg/kg/injection, schedule: Q01DX001 (ip), vehicle: carboxymethylcellulose (CMC)) of the same molecule?
Its T/C is 214 % of control.

What about the T/C (dose: 30.0 mg/kg/injection, schedule: Q01DX009 (ip), vehicle: carboxymethylcellulose (CMC)) of the same molecule?
The T/C was 103 % of control.

And the T/C (dose: 44.0 mg/kg/injection, schedule: Q01DX001 (ip), vehicle: carboxymethylcellulose (CMC))?
The T/C was 210 % of control and 298 % of control.

And the T/C (dose: 66.0 mg/kg/injection, schedule: Q01DX001 (ip), vehicle: carboxymethylcellulose (CMC))?
The T/C was 257 % of control.

What about the T/C [6] of the same molecule?
The T/C was 218 % of control and 263 % of control.

Which T/C (dose: 6.25 mg/kg/injection, schedule: Q01DX009 (ip), vehicle: Klucel (hydroxypropylcellulose) (HPC)) does the source give for Nc1[nH]c(=S)ncc1-c1ccccc1Cl here?
Its T/C is 94 % of control.

What about the T/C (dose: 12.5 mg/kg/injection, schedule: Q01DX009 (ip), vehicle: Klucel (hydroxypropylcellulose) (HPC)) of the same molecule?
Its T/C is 94 % of control.

And the T/C (dose: 25.0 mg/kg/injection, schedule: Q01DX009 (ip), vehicle: Klucel (hydroxypropylcellulose) (HPC))?
Its T/C is 97 % of control.

What about the T/C [1] of the same molecule?
The T/C was 88 % of control.

For CC(C)C(Br)C(=O)NCC(=O)O (stereo not drawn), which T/C [7] is on record?
Its T/C is 102 % of control.

What about the T/C [8] of the same molecule?
Its T/C is 98 % of control.

What about the T/C [9] of the same molecule?
The T/C was 98 % of control.

Which results are given for Fc1nc2nc(C(F)(F)F)[nH]c2nc1F?
T/C (dose: 25.0 mg/kg/injection, schedule: Q01DX009 (ip), vehicle: saline with Tween-80): 93 % of control; T/C [10]: 90 % of control; T/C [11]: 95 % of control; T/C [5]: 103 % of control; T/C [7]: 95 % of control; T/C [8]: 105 % of control; T/C [9]: 90 % of control

Which results are given for C[N+](C)(C)C(=O)c1ccccc1?
T/C (dose: 50.0 mg/kg/injection, schedule: Q01DX001 (ip), vehicle: saline): 104 % of control; T/C (dose: 100.0 mg/kg/injection, schedule: Q01DX001 (ip), vehicle: saline): 101 % of control

How did the T/C [10] turn out when CC(C)(CC(=O)O)Cc1ccccc1 was run?
Its T/C is 101 % of control.

And the T/C [11]?
The T/C was 93 % of control.

What about the T/C [12] of the same molecule?
The T/C was 101 % of control.

For BrC1(Br)C2CCCCC21 (stereo not drawn), which T/C (dose: 100.0 mg/kg/injection, schedule: Q04DX003 (ip), vehicle: acetone) is on record?
The T/C was 90 % of control.

And the T/C (dose: 200.0 mg/kg/injection, schedule: Q04DX003 (ip), vehicle: acetone)?
The T/C was 98 % of control and 90 % of control.

Which T/C [13] does the source give for CC(C)(CNCc1ccccc1)COS(=O)(=O)O here?
The T/C was 102 % of control.

What about the T/C (dose: 200.0 mg/kg/injection, schedule: Q04DX003 (ip), vehicle: saline) of the same molecule?
Its T/C is 102 % of control.

And the T/C (dose: 400.0 mg/kg/injection, schedule: Q04DX003 (ip), vehicle: saline)?
The T/C was 100 % of control.

Which T/C (dose: 100.0 mg/kg/injection, schedule: Q01DX Z (ip), vehicle: methylcellulose (MC)) does the source give for Cc1cc(C)c2c(SC(C)C)nc(N)nc2n1 here?
Its T/C is 95 % of control.

What about the T/C (dose: 200.0 mg/kg/injection, schedule: Q01DX Z (ip), vehicle: methylcellulose (MC)) of the same molecule?
The T/C was 97 % of control.

What does the source list for Oc1ccc(Cl)cc1/C=N\NC(=S)Nc1ccc2cn[nH]c2c1?
T/C (dose: 50.0 mg/kg/injection, schedule: Q01DX001 (ip), vehicle: carboxymethylcellulose (CMC)): 102 % of control; T/C [6]: 86 % of control; T/C (dose: 200.0 mg/kg/injection, schedule: Q01DX001 (ip), vehicle: carboxymethylcellulose (CMC)): 102 % of control

With CCCCCCCCCCCC(=O)Nc1ccc(C(C)C)cc1 as the molecule, how does the T/C [2] read?
The T/C was 102 % of control.

What about the T/C [3] of the same molecule?
Its T/C is 87 % of control.

And the T/C [4]?
Its T/C is 92 % of control.

What does the source list for ClCc1nc2ccc(Cl)cc2[nH]1?
T/C (dose: 100.0 mg/kg/injection, schedule: Q01DX001 (ip), vehicle: other): 104 % of control; T/C (dose: 200.0 mg/kg/injection, schedule: Q01DX001 (ip), vehicle: other): 106 % of control

What does the source list for CC(=O)O[C@H]1CC[C@H]2[C@@H]3[C@H](C)CC4=CC(=O)CCC4[C@H]3CC[C@]12C (stereo partly drawn)?
T/C (dose: 100.0 mg/kg/injection, schedule: Q01DX001 (sc), vehicle: steriod suspending solution): 98 % of control; T/C (dose: 200.0 mg/kg/injection, schedule: Q01DX001 (sc), vehicle: steriod suspending solution): 100 % of control; T/C (dose: 400.0 mg/kg/injection, schedule: Q01DX001 (sc), vehicle: steriod suspending solution): 102 % of control

Which T/C (dose: 25.0 mg/kg/injection, schedule: Q04DX003 (ip), vehicle: saline) does the source give for CCN(CC)CC(O)Cn1cnc2cncnc21 (stereo not drawn) here?
The T/C was 98 % of control.

And the T/C (dose: 50.0 mg/kg/injection, schedule: Q04DX003 (ip), vehicle: saline)?
Its T/C is 107 % of control.

What about the T/C [13] of the same molecule?
The T/C was 98 % of control.

For CC(=O)N(C)c1ccc(NC(=O)Nc2cccc(C(F)(F)F)c2)cc1, which T/C [11] is on record?
The T/C was 94 % of control.

And the T/C [12]?
Its T/C is 99 % of control.

What about the T/C (dose: 400.0 mg/kg/injection, schedule: Q01DX009 (ip), vehicle: saline with Tween-80) of the same molecule?
Its T/C is 97 % of control.

What does the source list for CSc1nc(C)c(C)[n+](C)n1?
T/C (dose: 75.0 mg/kg/injection, schedule: Q01DX001 (ip), vehicle: saline with Tween-80): 115 % of control; T/C (dose: 150.0 mg/kg/injection, schedule: Q01DX001 (ip), vehicle: saline with Tween-80): 117 % of control
